From US8461186B2, “Use of N-piperidine derivatives for the treatment of neurodegenerative pathologies” (Medestea Research & Production S.p.A., priority 2004, dated 2013)
Like-named read-outs stand apart in the source and are kept apart here.

Assays:
[1] = system: rats receiving Paraquat into Substantia Nigra; assay type: in vivo, rat; settings: for deaths of rats: 120 mg/kg intraperitoneally 5 minutes prior to, simultaneously with, or 5 minutes after 50 μg Paraquat; for signs of alterations during continuous monitoring / survival for a further 24 hours: Paraquat (50 μg) microinfused simultaneously with 1 μg compound; for capacity to cross the blood-brain barrier (BBB): concluded from protection after intraperitoneal administration; for protection against the behavioural and neuropathological effects induced by Paraquat: intracerebral and peripheral administration
Source text: The Paraquat/rat/PS experimental model was therefore selected as the most indicative for checking the efficacy of chemical compounds according to the present invention; of these, two anti-oxidants designated MP1002 and MP1001 were used in the tests:
Male Sprague Dawley rats (210-220 g weight) were kept on a standard laboratory diet supplemented with “Nossan Pellets” (both the animals and the pellets are available from Nossan Company, Milan, Italy) and were housed for three weeks (relative humidity 50%±10%, temperature 22° C.±1 and in a light/darkness cycle of 12 hours/12 hours, with first light at 7.30 a.m.) prior to the tests; food and water were available ad libitum.
Prior to treatment, the rats were anaesthetized by intraperitoneal injection of 380 mg/kg weight of chloral hydrate; a stainless steel guide cannula (size 25) was implanted unilaterally in the Substantia Nigra with stereotaxic guiding and was secured to the cranium with dental acrylic material.
The animals (20 per test group) were allowed a recovery period of seven days prior to treatment; during this period no change in motor activity or posture was observed. Microinfusions were performed by means of a 10 μl Hamilton syringe connected to an injection cannula by means of a Teflon tube. The compounds or the vehicle (0.8% NaCl) were injected at a total volume of 1 μl/minute.
Microinfusion of 50 μg of Paraquat into the Substantia Nigra (n=20 rats) led to an increase in motor activity with the animals performing jumps and moving in circles in a contralateral direction relative to the injection position, about 24 minutes later; all of the animals were dead 24±2.5 hours after infusion. A further twenty animals were infused with Paraquat and twenty with Paraquat plus vehicle; about ten of the animals for each group survived 20 hours after treatment and were used to determine the development of lipid peroxidation in the Substantia Nigra.

[2] = system: lipid peroxidation in the Substantia Nigra; assay type: in vivo; settings: for Lipid Peroxidation: Substantia Nigra, 24 hours; for lipid peroxidation in the Substantia Nigra: treatment before, with, or after infusion with Paraquat, p<0.01
Protocol: Microinfusion of 50 μg of Paraquat into the Substantia Nigra (n=20 rats) led to an increase in motor activity with the animals performing jumps and moving in circles in a contralateral direction relative to the injection position, about 24 minutes later; all of the animals were dead 24±2.5 hours after infusion. […]
(§1) […]. Enzymol. 52, 302-310, 1978.

[3] = system: lipid peroxidation in the heart tissue; experiment: Malondialdehyde (MDA) in the heart tissue in myocardial ischaemia and reperfusion; assay type: in vivo, rat; settings: I/R rats, 10 mg/kg bolus then 2 mg/kg/h; p<0.01 (FIG. 2)
Protocol: as §1
(§2) The following test groups were considered: a) LAD occlusion (25 minutes) and reperfusion (2 hours) plus administration of the vehicle (saline solution, 3 ml/kg-v-bolus plus 1.8 ml/kg/h) starting 5 minutes after reperfusion and maintained during the reperfusion period; b) LAD occlusion and reperfusion plus administration of MP1002 or MP1001 (10 mg/kg injection in bolus) 5 minutes prior to reperfusion, followed by infusion of 2 mg/kg/h during the reperfusion period; c) sham operation (no LAD occlusion) and infusion of the vehicle; d) sham operation and infusion of MP1002 or MP1001 as described above.
The malondialdehyde (MDA) in the heart tissue as final peroxidation product of the cell membrane lipids was also determined as described above.

[4] = system: mean arterial blood pressure (MAP) and heart rate (HR) in the rat; experiment: Mean arterial blood pressure (MAP) and heart rate (HR) in myocardial ischaemia and reperfusion; assay type: in vivo; settings: for HR: in beats/min (unit assumed); for MAP: in mmHg (unit assumed); for mean MAP and HR values versus the I/R group treated with the vehicle alone: rats subjected to I/R; for haemodynamic effects of infusion: sham operations (no LAD occlusion)
Protocol: The rats (twenty per group) were anaesthetized by intraperitoneal injection of chloral hydrate (380 mg/kg) and were then tracheotomized, intubated and ventilated with ambient air by a suitable ventilator; body temperature was kept at 38° C.±1 and the right carotid artery was cannulated and connected to a pressure transducer to monitor the mean arterial blood pressure (MAP).
The coronary artery was occluded by tightening the occluder, a procedure which is correlated with the electrocardiographic and haemodynamic changes (drop in MAP) which are typical of myocardial ischaemia. After 25 minutes of myocardial ischaemia, the occluder was reopened, permitting reperfusion for 2 hours. The heart rate (HR) and MAP were monitored continuously.
as §2
The base haemodynamic results were similar in the various groups considered.

[5] = 50 μg paraquat by microinfusion, 5 minutes later 100 mg/kg b.w. intraperitoneal
[6] = pretreated intraperitoneally 120 mg/kg b.w., after 5 minutes paraquat (50 μg) by microinfusion
[7] = simultaneous microinfusion into Substantia Nigra of paraquat (50 μg) with 1 μg compound
[8] = simultaneously 50 μg paraquat by microinfusion and 120 mg/kg b.w. intraperitoneal
[9] = pretreated intraperitoneally 120 mg/kg b.w., after 5 minutes paraquat (50 μg)
[10] = simultaneous microinfusion of paraquat (50 μg) with 1 μg compound
[11] = Sham operation, Occlusion 15 min
[12] = Sham operation, Occlusion 25 min
[13] = Sham operation, Reperfusion 15 min
[14] = Sham operation, Reperfusion 25 min

CC1(C)CC(OC(=O)CCCCCCCCC(=O)OC2CC(C)(C)N(O)C(C)(C)C2)CC(C)(C)N1O [MP1001, BIS(1-HYDROXYL-2,2,6,6-TETRAMETHYL-4-PIPERIDINYL)DECANDIOATE]
Duration (seizures) [1, 5]: No seizures and epileptic discharges
Latency (seizures) [1, 5]: No seizures and epileptic discharges
Mortality [1, 5]: 0%
deaths of rats [1]: none of the rats died
signs of alterations during continuous monitoring [1]: no signs of alterations were observed
survival for a further 24 hours [1]: all of the animals survived
capacity to cross the blood-brain barrier (BBB) [1]: cross the blood-brain barrier
protection against the behavioural and neuropathological effects induced by Paraquat [1]: protected completely
Duration (seizures) [1, 6]: No seizures and epileptic discharges
Latency (seizures) [1, 6]: No seizures and epileptic discharges
Mortality [1, 6]: 0%
Duration (seizures) [1, 7]: No seizures and epileptic discharges
Latency (seizures) [1, 7]: No seizures and epileptic discharges
Mortality [1, 7]: 0%
Duration (seizures) [1, 8]: No seizures and epileptic discharges
Latency (seizures) [1, 8]: No seizures and epileptic discharges
Mortality [1, 8]: 0%
Lipid Peroxidation [2, 5]: 4.8 ± 0.57 nmol MDA × h^−1 × mg prot^−1
Lipid Peroxidation [2, 9]: 4.7 ± 0.49 nmol MDA × h^−1 × mg prot^−1
Lipid Peroxidation [2, 10]: 5.4 ± 0.84 nmol MDA × h^−1 × mg prot^−1
Lipid Peroxidation [2, 8]: 5.1 ± 0.94 nmol MDA × h^−1 × mg prot^−1
lipid peroxidation in the Substantia Nigra [2]: markedly and significantly (p<0.01) reduced lipid peroxidation
development of lipid peroxidation in heart tissue (MDA) [3]: reduced the development of peroxidation to levels similar to those of the animals that were subjected to sham operations
HR ([4]; I/R, Baseline): 435 ± 25
MAP ([4]; I/R, Baseline): 125 ± 9
HR ([4]; I/R, Occlusion 15 min): 438 ± 31
MAP ([4]; I/R, Occlusion 15 min): 118 ± 12
HR ([4]; I/R, Occlusion 25 min): 430 ± 28
MAP ([4]; I/R, Occlusion 25 min): 111 ± 13
HR ([4]; I/R, Reperfusion 15 min): 425 ± 28
MAP ([4]; I/R, Reperfusion 15 min): 100 ± 10
HR ([4]; I/R, Reperfusion 25 min): 427 ± 26
MAP ([4]; I/R, Reperfusion 25 min): 95 ± 8
HR ([4]; Sham operation, Baseline): 422 ± 33
MAP ([4]; Sham operation, Baseline): 127 ± 16
HR [4, 11]: 422 ± 26
MAP [4, 11]: 125 ± 13
HR [4, 12]: 424 ± 48
MAP [4, 12]: 121 ± 11
HR [4, 13]: 427 ± 27
MAP [4, 13]: 112 ± 8
HR [4, 14]: 427 ± 23
MAP [4, 14]: 107 ± 16
mean MAP and HR values versus the I/R group treated with the vehicle alone [4]: not significantly different
haemodynamic effects of infusion [4]: no substantial haemodynamic effects

CC1(C)CC(OC(=O)CCCCCCCCC(=O)OC2CC(C)(C)N(O)C(C)(C)C2)CC(C)(C)N1O [MP1002, bis(1-oxyl-2,2,6,6-tetramethyl-4-piperidinyl)decandioate]
Duration (seizures) [1, 5]: No seizures and epileptic discharges
Latency (seizures) [1, 5]: No seizures and epileptic discharges
Mortality [1, 5]: 0%
deaths of rats [1]: none of the rats died
signs of alterations during continuous monitoring [1]: no signs of alterations were observed
survival for a further 24 hours [1]: all of the animals survived
capacity to cross the blood-brain barrier (BBB) [1]: cross the blood-brain barrier
protection against the behavioural and neuropathological effects induced by Paraquat [1]: protected completely
Duration (seizures) [1, 6]: No seizures and epileptic discharges
Latency (seizures) [1, 6]: No seizures and epileptic discharges
Mortality [1, 6]: 0%
Duration (seizures) [1, 7]: No seizures and epileptic discharges
Latency (seizures) [1, 7]: No seizures and epileptic discharges
Mortality [1, 7]: 0%
Duration (seizures) [1, 8]: No seizures and epileptic discharges
Latency (seizures) [1, 8]: No seizures and epileptic discharges
Mortality [1, 8]: 0%
Lipid Peroxidation [2, 5]: 4.1 ± 0.39 nmol MDA × h^−1 × mg prot^−1
Lipid Peroxidation [2, 9]: 5.2 ± 0.75 nmol MDA × h^−1 × mg prot^−1
Lipid Peroxidation [2, 10]: 4.3 ± 0.63 nmol MDA × h^−1 × mg prot^−1
Lipid Peroxidation [2, 8]: 4.9 ± 0.86 nmol MDA × h^−1 × mg prot^−1
lipid peroxidation in the Substantia Nigra [2]: markedly and significantly (p<0.01) reduced lipid peroxidation
development of lipid peroxidation in heart tissue (MDA) [3]: reduced the development of peroxidation to levels similar to those of the animals that were subjected to sham operations
HR ([4]; I/R, Baseline): 438 ± 30
MAP ([4]; I/R, Baseline): 127 ± 14
HR ([4]; I/R, Occlusion 15 min): 437 ± 32
MAP ([4]; I/R, Occlusion 15 min): 121 ± 14
HR ([4]; I/R, Occlusion 25 min): 431 ± 24
MAP ([4]; I/R, Occlusion 25 min): 114 ± 10
HR ([4]; I/R, Reperfusion 15 min): 427 ± 29
MAP ([4]; I/R, Reperfusion 15 min): 102 ± 11
HR ([4]; I/R, Reperfusion 25 min): 429 ± 25
MAP ([4]; I/R, Reperfusion 25 min): 97 ± 9
HR ([4]; Sham operation, Baseline): 421 ± 26
MAP ([4]; Sham operation, Baseline): 125 ± 15
HR [4, 11]: 420 ± 33
MAP [4, 11]: 123 ± 16
HR [4, 12]: 422 ± 25
MAP [4, 12]: 120 ± 11
HR [4, 13]: 428 ± 26
MAP [4, 13]: 110 ± 12
HR [4, 14]: 426 ± 32
MAP [4, 14]: 105 ± 9
mean MAP and HR values versus the I/R group treated with the vehicle alone [4]: not significantly different
haemodynamic effects of infusion [4]: no substantial haemodynamic effects
